Assay results reported in patent US6866861B1, “Method and composition for enhancing milk component concentrations” (Land O'Lakes, Inc., priority 1999, dated 2005).

Legend:
[1] = tested on: cows; test: Abomasal infusion of sorbitol in cows, repeat trial with different cows (Example 3); type: in vivo, cow; conditions: for Fat / Lactose / Non-Protein Nitrogen / Total Solids / True Protein: 100 g/cow/day abomasal, 3 cows
Protocol: To determine the weight percent total solids, wet basis, in a sample, the actual weight of total solids is determined by analyzing the sample in accordance with Method #925.23 (33.2.09) of Official Methods of Analysis, Association of Official Analytical Chemists (AOAC) (16th Ed., 1995). The weight percent total solids, wet basis, is then calculated by dividing the actual weight of total solids by the actual weight of the sample. The weight percent of true protein, wet basis, for a particular sample is calculated after first determining the wet basis weight percent of total Kjeldahl nitrogen and the wet basis weight percent of non-protein nitrogen in the sample. The wet basis weight percent of total Kjeldahl nitrogen in the sample is determined using the method referenced above. The wet basis weight percent of non-protein nitrogen (NPN) in the sample is determined in accordance with Method #991.21 (33.2.12) of Official Methods of Analysis, Association of Official Analytical Chemists (AOAC) (16th Ed., 1995). The weight percent of true protein, wet basis, in the sample is then determined by subtracting the wet basis weight percent of non-protein nitrogen in the sample from the wet basis weight percent of total Kjeldahl nitrogen in the sample. To determine the weight percent lactose, wet basis, in a liquid sample, the weight of the liquid sample is first determined. The actual weight of lactose in the liquid sample may then be determined using analysis kit number 176-303, that is available from Boehringer-Mannheim of Indianapolis, Ind. in accordance with the procedural instructions included with analysis kit number 176-303. The weight percent lactose, wet basis, in the liquid sample is then calculated by dividing the actual weight of lactose in the liquid sample by the actual weight of the liquid sample. To determine the weight percent fat, wet basis, in a sample, the actual weight of fat in the sample is determined in accordance with Method #974.09 (33.7.18) of Official Methods of Analysis, Association of Official Analytical Chemists (AOAC) (16th Ed., 1995). The weight percent fat, wet basis, is then calculated by dividing the actual weight of fat in the sample by the actual weight of the sample. In this example, sorbitol was abomasally infused into three different cows at a rate of 100 grams of sorbitol per cow per day during a 14 day test period. The sorbitol rations were mixed with water to facilitate infusion. The rations provided to the cows during the period extending from day 0, prior to abomasal infusion of sorbitol, through day 14 of the test period were the same. The only difference in feeding of the cows between day 0 and days 1-14 of the test period were that during days 1-14 the cows were abomasally infused with the dosage of 100 grams of sorbitol per cow per day. Milk from the three cows was collected and analyzed prior to infusion (on day 0) and also was collected and analyzed on the third, seventh and fourteenth day of the test period. The results presented in Table 2 below for each milk component for each particular day are averages for the milk collected from the three different cows. The trial of Example 2 was repeated in Example 3 several months later using three different cows. All of the test conditions described above for Example 2 were repeated in Example 3, with the exception of use of different cows. The results of the second trial are listed in Table 3 below: The net change for the different milk components presented in Table 3 was calculated by averaging the results of days 3, 7 and 14 for a particular milk component and subtracting the results presented for day 0 for the particular milk component. The results of Table 3 illustrate that, on average, the abomasal infusion of sorbitol caused a net increase in the amount of fat and total solids in the milk of the test cattle. […]

[2] = tested on: cows; test: Abomasal infusion of glycerol on an on-off-on schedule, total solids in milk (Example 6, FIG. 3); type: in vivo; conditions: 150 g/cow/day abomasal weeks 1-3 and 7-9, water weeks 4-6; average of two cows
Protocol: FIG. 3 is a graph of the concentration of total solids in milk versus time when abomasally infusing glycerol into cattle in accordance with the method of the present invention. To determine the weight percent total solids, wet basis, in a sample, the actual weight of total solids is determined by analyzing the sample in accordance with Method #925.23 (33.2.09) of Official Methods of Analysis, Association of Official Analytical Chemists (AOAC) (16th Ed., 1995). The weight percent total solids, wet basis, is then calculated by dividing the actual weight of total solids by the actual weight of the sample. In Example 6, two cows were abomasally infused at the rate of 150 grams per cow per day of glycerol on an on-off-on schedule to determine whether there were any benefits to intermittently providing glycerol to the abomasum of the cattle. For each cow, glycerol was abomasally infused during weeks 1-3 and weeks 7-9, while water, and not glycerol, was abomasally infused into each cow during weeks 4-6. The results of this test are graphically depicted in FIG. 3 as the concentration, expressed as weight percent, of total solids in the milk produced by the cattle during the test period.

[3] = milk, average of days 3, 7, 14 minus day 0

In the case of `OC[C@@H](O)[C@@H](O)[C@H](O)[C@@H](O)CO` [sorbitol], the “amount of fat and total solids in the milk (conclusion in words)” value ([1]; abomasal infusion, 14 day test period, on average) is reported as “net increase”, the Fat ([1]; milk, Day 3) is reported as 4.22 Wt % and the Lactose ([1]; milk, Day 3) is reported as 4.80 Wt. %. For the same molecule, the “Non-Protein Nitrogen” value ([1]; milk, Day 3) was 0.23 Wt. %, the “Total Solids” value ([1]; milk, Day 3) was 12.95 Wt. % and the “True Protein” value ([1]; milk, Day 3) was 3.21 Wt. %. The Fat ([1]; milk, Day 7) was 3.53 Wt %, the Lactose ([1]; milk, Day 7) was 5.12 Wt. % and the “Non-Protein Nitrogen” value ([1]; milk, Day 7) was 0.27 Wt. %. The “Total Solids” value ([1]; milk, Day 7) was 12.26 Wt. %, the “True Protein” value ([1]; milk, Day 7) was 2.89 Wt. % and the Fat ([1]; milk, Day 14) was 3.81 Wt %. For the same molecule, the Lactose ([1]; milk, Day 14) was 5.80 Wt. %, the “Non-Protein Nitrogen” value ([1]; milk, Day 14) was 0.23 Wt. % and the “Total Solids” value ([1]; milk, Day 14) was 12.55 Wt. %. The “True Protein” value ([1]; milk, Day 14) was 3.22 Wt. %, the “Fat, Net Change” value [1, 3] was “+0.38 Wt %” and the “Lactose, Net Change” value [1, 3] was “+0.39 Wt. %”. For the same molecule, the “Non-Protein Nitrogen, Net Change” value [1, 3] was “no net change”, the “Total Solids, Net Change” value [1, 3] was “+0.41 Wt. %” and the “True Protein, Net Change” value [1, 3] was −0.03 Wt. %. The “increase of true protein content if the results of day 7 were eliminated from the net change” value ([1]; milk, days 3 and 14 versus day 0) was “about 0.08 weight percent”.

With `OCC(O)CO` [glycerol] the “weight percent of total solids in the milk (FIG. 3, in words)” value [2] was “increased”.
